Assay [1] deals with HIV-1 double mutant K103N/Y181C. The assay can be described thus: microbe, parasite or virus in culture. Format: cell-based.
The target of assay [2] is T1, HIV-1 RT double mutant K103N/Y181C (Human immunodeficiency virus type 1 group M subtype B, UniProt P03366, K702N/Y780C).
T1 construct: HIV-1 wild type reverse transcriptase as well as the clinically significant double mutant K103N/Y181C
The assay can be described thus: biochemical. On the procedure:
(§1) Utilizing the Reverse Transcriptase (RT) Assay described below, compounds were tested for their ability to inhibit the RNA-dependent DNA polymerase activity of HIV-1 RT. Certain specific compounds described in the Examples and in Tables 1-4, were so tested. The results of this testing appear in Table 5 as ranges of IC50 (nM) and EC50 (nM).
(§2) Reverse Transcriptase (RT) Assays

The target of assay [3] is T2, HIV-1 wild type reverse transcriptase (Human immunodeficiency virus type 1 group M subtype B, UniProt P03366).
T2 construct: HIV-1 wild type reverse transcriptase
The assay can be described thus: biochemical. Particulars: wild type RT; read-out: IC50 WT RT. The method, then:
as §1, §2

The subject of assay [4] is HIV-1 wild type. The assay can be described thus: microbe, parasite or virus in culture. Format: cell-based.
Setting [5] is: Human immunodeficiency virus 1, read-out: EC50 K103N/Y181C (nM).
Setting [6] is: Human immunodeficiency virus 1, wild type, read-out: EC50 WT RT.
Setting [7] is: double mutant K103N/Y181C, read-out: EC50 K103N/Y181C.
[8] abbreviates: RT double mutant K103N/Y181C, read-out: IC50 K103N/Y181C.
[9] abbreviates: wild type, read-out: EC50 WT RT.

Molecules are shown by their SMILES. Like-named read-outs stand apart in the source and are kept apart here. Where only a bound is given, the exact number is not on record here.

The values below come from US6806265B2, “Non-nucleoside reverse transcriptase inhibitors” (priority 2002, dated 2004).

Turning to `CCN1c2ncc(CCOc3ccc(C(=O)Nc4ccc(CC(=O)O)cc4)cc3C)cc2C(=O)N(C)c2cccnc21` [Entry 3005], the EC50 is 10 to 50 nM in assay [1] (setting [5]) and less than 10 nM in assay [4] (Human immunodeficiency virus 1, read-out: EC50 WT RT (nM)). The IC50 in assay [2] and in assay [3] was less than 50 nM each time.
Regarding `CCN1c2ncc(CCOc3ccc(C(=O)Nc4cc[n+]([O-])cc4)cc3C)cc2C(=O)N(C)c2cccnc21` [Entry 3004, 4-[2-(11-Ethyl-6,11-dihydro-5-methyl-6-oxo-5H-dipyrido[3,2-b:2′,3′-e][1,4]diazepin-8-yl)ethoxy]-3-methyl-N-(1-oxido-4-pyridinyl)benzamide], the EC50 in assay [1] (setting [5]) and in assay [4] (setting [6]) was less than 10 nM throughout. The IC50 in assay [2] and in assay [3] was less than 50 nM throughout.
With `CCN1c2ncc(CCOc3ccc(-c4ccc(C(=O)O)cc4)cc3C)cc2C(=O)N(C)c2cccnc21` [Entry 1003], the EC50 in assay [1] (setting [7]) and in assay [4] (setting [9]) was less than 10 nM each time. In addition, the IC50 in assay [2] (setting [8]) and in assay [3] was less than 50 nM throughout.
In the case of `CCN1c2ncc(CCOc3ccc(C(=O)Nc4cccn(CC(=O)O)c4=O)cc3C)cc2C(=O)N(C)c2cccnc21` [Entry 3012], the EC50 in assay [1] (setting [5]) and in assay [4] (setting [6]) was more than 50 nM throughout. Moreover, the IC50 was 50 to 100 nM in assay [2] and less than 50 nM in assay [3].
Consider `CCN1c2ncc(CCOc3ccc(-c4cc[n+]([O-])cc4)cc3)cc2C(=O)N(C)c2cccnc21` [Entry 1091, 11-Ethyl-5,11-dihydro-5-methyl-8-{2-[4-(1-oxido-4-pyridinyl)phenoxy]ethyl}-6H-dipyrido[3,2-b:2′,3′-e][1,4]diazepin-6-one], for which the EC50 in assay [1] (setting [5]) and in assay [4] (setting [6]) was less than 10 nM each time. The IC50 in assay [2] and in assay [3] was less than 50 nM each time.
In the case of `Cc1cc(-c2ccc(CC(=O)O)cc2)ccc1OCCc1cnc2c(c1)C(=O)N(C)c1cccnc1N2` [Entry 1059], the EC50 was more than 50 nM in assay [1] (setting [7]) and less than 10 nM in assay [4] (setting [9]). The values for the IC50 in assay [2] (setting [8]) and in assay [3] were more than 100 nM and less than 50 nM, respectively.
